Experimental data taken from patent publication US20240415791A1, “Therapeutic methods and compositions for treating cancer using devimistat and a fatty acid oxidation inhibitor, a tyrosine kinase inhibitor, a glutaminase inhibitor, and/or a glycolysis inhibitor” (Cornerstone Pharmaceuticals, Inc., priority 2021, published 2024).

Columns and labels:
Format in all cases: cell-based, human
AsPC1 cells [1] = assay: Devimistat-induced cell death (ATP after recovery) in AsPC1 cells; settings: exogenous nutrient-free conditions
Protocol: Cells were plated at 80% confluency in complete RPMI in black, clear bottom 96-well plates or 35-mm dishes for ATP, protein and glycogen analysis, or glass coverslips for fluorescence visualization. […] Prior to drug treatment, cells were incubated in a nutrient-free carbonate buffered salt solution (CBS2) for 3 hours. Drug treatments were then carried out in CBS2 with addition of nutrient sources and/or chemical agents as described in the Examples and Figures.
(§1) LOGIC: High throughput, plate reader assays for cell death essentially always ultimately depend on metabolic activity of cells to identify viability, directly or indirectly. Thus, strong inhibition of metabolic activity by anti-metabolism agents like those described herein can confound cell death analysis by such assays. […] The inventors thus used a recovery-based assay wherein cells are treated with anti-metabolic agents under conditions where mitochondrial metabolism is (or becomes) limiting on viability. After experimental treatment, drug and media are removed and cells are allowed to recover in serum-free RPMI. RPMI provides high levels of glucose in support of glycolytic ATP generation (independently of mitochondrial function), allowing viable cells to recover ATP levels that are ultimately measured in the plate assay to score cell viability.
Survival is assessed by conventional luminescence measurement of ATP levels after this recovery.
TECHNICAL DETAILS: Immediately after drug treatments, acute ATP levels of cells in black, clear bottom 96-well plates were measured using the CellTiter-Glo® Luminescent Cell Viability Assay (catalog #G775B) following Promega (Madison, WI) protocols. […] After this recovery period ATP levels were measured using the CellTiter-Glo® Luminescent Cell Viability Assay as described above.
Survival is assessed by conventional luminescence measurement of ATP levels after this recovery. See the Methods section above for a detailed description of this assay and its validation.

PANC1 cells = assay: Devimistat-induced cell death (ATP after recovery) in PANC1 cells; settings: exogenous nutrient-free conditions
Protocol: Cells were plated at 80% confluency in complete RPMI in black, clear bottom 96-well plates or 35-mm dishes for ATP, protein and glycogen analysis, or glass coverslips for fluorescence visualization. To create low nutritional conditions, cells were seeded in complete media, after 24 hours cells were transferred to serum free RPMI for 18-24 hours. Prior to drug treatment, cells were incubated in a nutrient-free carbonate buffered salt solution (CBS2) for 3 hours. Drug treatments were then carried out in CBS2 with addition of nutrient sources and/or chemical agents as described in the Examples and Figures.
as §1, with “cell viability. Under these conditions, cells that are committed to execution of cell death by the experimental treatment score as dead and cells that have not committed to cell death recover ATP levels and score as viable.” for “cell viability.”
Specifically, after exposure to the treatments indicated, cells are allowed to recover ([…]) in RPMI without serum. Survival is assessed by conventional luminescence measurement of ATP levels after this recovery.
TECHNICAL DETAILS: Immediately after drug treatments, acute ATP levels of cells in black, clear bottom 96-well plates were measured using the CellTiter-Glo® Luminescent Cell Viability Assay (catalog #G775B) following Promega (Madison, WI) protocols. To assess cell viability, after drug treatments, drug/agent-containing medium was replaced with serum-free RPMI and cells were incubated for an additional 17-24 hours to allow recovery of viable cells, without additional cell division. After this recovery period ATP levels were measured using the CellTiter-Glo® Luminescent Cell Viability Assay as described above.
A. Exogenous glucose protects from devimistat-induced cell death. Four different cell lines were exposed for 15 hours (PANC1, AsPC1, H460) or 8 hours (PC3) to the indicated range of devimistat doses in the absence of exogenous nutrients (in carbonate buffered balanced salts solution, CBS2) after 3 hours of preincubation in CBS2 (for cell adaptation and to equilibrate soluble nutrient pools). Cells were exposed to the treatments indicated, followed by recovery (24 hours) in RPMI without serum (providing nutrient support for viable cell recovery, without serum factors for cell division). Survival is assessed by conventional luminescence measurement of ATP levels after this recovery. […] The relatively large quantitative differences in devimistat sensitivity between cell lines under exogenous nutrient deprivation are characteristic of each line (see examples below), with small experiment-to-experiment variation. […]

AsPC1 cells [2] = assay: Glycogen content in AsPC1 cells; settings: AsPC1, CBS2, 3 hours
Protocol: Glycogen was quantified using the Glycogen Assay Kit II (colorimetric) from AbCam (ab169558) according to manufacturer's instructions. Briefly, approximately 2×10^6 cells were washed with ice-cold PBS and collected via scraping in 300 μL ice-cold ddH2O. Cells were immediately sonicated on ice for 5× […] pulses with a probe sonicator (Misonix Inc, model XL2000), then heated to 80° C. for 10 min. Samples were stored O/N at −20° C., then thawed, centrifuged at 12,000×g for 10 min and the supernatants collected for glycogen hydrolysis and quantification according to manufacturer's instructions.
C. […] Cells were treated in CBS2 for 3 hours with 30 μM devimistat or mock treated (FIG. 2C, left), or treated for 3 hours with the indicated devimistat doses (FIG. 2C, right).
D. Effects of anti-metabolism agents on glycogen consumption in PANC1 and AsPC1 cells. […] Glycogen content was measured in cell lysates (see Methods, above) and the results are presented in the left and middle graphs in FIG. 3D (note the different vertical scales for PANC1 and AsPC1 plots).

O=C(O)CCCCC(CCSCc1ccccc1)SCc1ccccc1 (stereo not drawn) [devimistat, 6,8-bis(benzylsulfanyl)octanoic acid]
sensitivity of AsPC1 line to devimistat monotherapy (AsPC1 cells [1]): resistant to devimistat monotherapy | sensitivity of PANC1 line to devimistat monotherapy (PANC1 cells): sensitive to devimistat monotherapy | glycogen consumption (AsPC1 cells [2]): accelerated
